In US20230110128A1, “USE OF ANTIBODY DRUG CONJUGATES COMPRISING TUBULIN DISRUPTING AGENTS TO TREAT SOLID TUMOR” (Seagen Inc., priority 2018, published 2023):
Entries after “also recorded” stand apart in the source; their conditions may differ. Non-standard residues stand in square brackets, D forms with d. Residues, ends and D or L forms follow the SMILES beside them. *: point of attachment. Dolaproine = CO[C@@H]([C@@H]1CCCN1)[C@@H](C)C(=O)O; Dil = CC[C@H](C)[C@H](NC)[C@@H](CC(=O)O)OC; X1 = C[C@@H](N*)[C@@H](O)c1ccccc1; NMeV = CN[C@H](C(=O)O)C(C)C

Tests used:
Assay type in all cases: cell-based
MDA-MB-468 cells = assay: ATP secretion from MDA-MB-468 cells; details: supernatant after 48 hours
Description: MDA-MB-468 cells were treated with MMAE or an MMAE-containing ADC (ASG-22ME). Supernatant was collected after 48 hours of treatment, and analyzed for ATP secretion.

[1] = system: U-266 multiple myeloma cells; assay: Western blot analysis of ER stress in U-266 cells; details: MMAE 492 nM, SGN-CD48A 10 ng/ml, 24 and 48 hours
Description: U-266 multiple myeloma cells were treated with free MMAE (492 nM), an MMAE-containing ADC (SGN-CD48A, 10 ng/ml), and a non-binding MMAE-ADO (10 ng/ml) for 24 and 48 hours. Cells were harvested at each time point and whole cell lysates were prepared. Lysates for each sample were run on an SDS-Page and transferred onto a nitrocellulose membrane. Western blot analysis was performed using phospho-JNK Thr183/Tyr185 (pJNK), PARR, ATF4, […], phospho-IRE-1 Ser274 (pIRE-1). β-actin serves as a loading control. […] Importantly, the induction of ER stress by MMAE in U-266 cells was sufficient to elicit markers of ICD.

PC-3 cells = assay: Western blot analysis of ER stress in PC-3 cells; details: 24 hours
Description: (§1) PC-3 prostate tumor cells were also treated with MMAE, Vincristine, or Paclitaxel. Supernatant was collected after 16 hours of treatment, and analyzed for ATP secretion. […] PC-3 cells were treated for 24 hours with an MMAE-containing ADC (SGN-LIV1A) or MMAE and harvested in RIPA buffer for western blot analysis (FIG. 3C).

[2] = system: PC-3 prostate tumor cells; assay: ATP secretion from PC-3 cells
Description: as §1

BxPC-3 cells = assay: ATP secretion from BxPC-3 cells; details: 17 hours
T-24 (bladder) cells = assay: ATP secretion from T-24 cells; details: 48 hours
Description: (§2) T-24 (bladder) cells were treated with MMAE or an MMAE-containing ADC (ASG-22ME) for 48 hours and analyzed for ATP secretion. […] T-24 cells were also treated with MMAE, an MMAE-containing ADC (ASG22ME, Enfortumab vedotin), vincristine, and Paclitaxel for 24 hours. Cells were washed and harvested, and subsequently co-cultured with the enriched macrophages as above. Macrophages were harvested 4 days after co-culture and assayed for immune activation by flow cytometry. Level of antigen-presentation (as measured by frequency of MHCII-expressing macrophages) was quantified and normalized to macrophages that were co-cultured with untreated tumor cells. […] Supernatant from the co-culture of macrophages and dying T-24 tumor cells was harvested after 24 hours and assayed for levels of cytokine and chemokine production by ELISA and normalized to macrophages that were co-cultured with untreated tumor cells.

[3] = system: A2058 and SK-MEL-5 tumor cells co-cultured with macrophages; assay: Cytokine and chemokine production in macrophage co-culture with treated A2058 and SK-MEL-5 cells; details: A2058 and SK-MEL-5 co-culture supernatant 24 hours, ELISA, normalized to untreated
Description: Supernatant from the co-culture of macrophages and dying A2058 and SK-MEL-5 tumor cells was harvested 24 hours later and assayed for levels of cytokine and chemokine production by ELISA and normalized to macrophages that were co-cultured with untreated tumor cells.

[4] = system: MCF7 cells co-cultured with macrophages; assay: Macrophage antigen presentation after co-culture with treated MCF7 cells; details: MCF7 treated 24 hours; macrophages harvested 4 days after co-culture
Description: MCF7 […] cells were treated with MMAE, an MMAE-containing ADC (anti-CD71 OKT9-1006), vincristine, and Paclitaxel for 24 hours. Cells were washed and harvested, and subsequently co-cultured with the enriched macrophages prepared above. Macrophages were harvested 4 days after co-culture and assayed for immune activation by flow cytometry. […] Supernatant from the co-culture of macrophages and dying MCF7 cells was harvested 24 hours later and assayed for levels of cytokine and chemokine production by ELISA and normalized to macrophages that were co-cultured with untreated tumor cells.

[5] = system: T-24 tumor cells co-cultured with macrophages; assay: Cytokine and chemokine production in macrophage co-culture with treated T-24 cells; details: T-24 co-culture supernatant after 24 hours, ELISA, normalized to untreated
Description: as §2

[6] = system: Hep3b, Huh7, and JHH7 cells; assay: ATP secretion from liver tumor lines; details: Huh7, JHH7, 24 hours
Description: Liver tumor lines Hep3b, Huh7, and JHH7 cells were treated with MMAE, Tubulysin M, vincristine, and Paclitaxel for 24 hours and analyzed for ATP secretion. […] Cells were washed and harvested, and subsequently co-cultured with enriched macrophages prepared as above. Macrophages were harvested 4 days after co-culture and assayed for immune activation by flow cytometry. Levels of costimulation (as measured by CD86 expression, JHH7) and antigen-presentation (as measured by frequency of MHCII-expressing cells, Hep3b, Huh7, and JHH7) were quantified and normalized to macrophages that were co-cultured with […]. […] Supernatant from the co-culture of macrophages and dying liver tumor cells was harvested 24 hours later and assayed for levels of cytokine and chemokine production by ELISA and normalized to macrophages that were co-cultured with untreated tumor cells.

[7] = system: BxPC3 and HPAFII tumor cells co-cultured with macrophages; assay: Cytokine and chemokine production in macrophage co-culture with treated BxPC3 and HPAFII cells; details: BxPC3 and HPAFII co-culture supernatant 24 hours, ELISA, normalized to untreated
Description: Supernatant from the co-culture of macrophages and dying tumor cells was harvested 24 hours later and assayed for levels of cytokine and chemokine production by ELISA and normalized to macrophages that were co-cultured with untreated tumor cells.

MCF7 cells [8] = assay: HMGB1 release from MCF7 cells
Description: Induction of ICD is also characterized by the secretion of ATP and HMGB1. Extracellular ATP serves as a strong chemotactic signal, promoting immune cell migration to the tumor site. Upon arrival, extracellular HMGB1 signals through various pro-inflammatory receptors (TLR2, TLR4, RAGE) to activate antigen-presenting cells, thereby promoting immune activity within the tumor.
MCF7 cells were treated with MMAE or an MMAE-containing ADC (SGN-LIV1A) for 16 hours and harvested in […] for western bot analysis. […] Induction of ICD is also characterized by the secretion of ATP and HMGB1. Extracellular ATP serves as a strong chemotactic signal, promoting immune cell migration to the tumor site. Upon arrival, extracellular HMGB1 signals through various pro-inflammatory receptors (TLR2, TLR4, RAGE) to activate antigen-presenting cells, thereby promoting immune activity within the tumor.

MCF7 cells [9] = assay: ATP secretion from MCF7 cells

## CC[C@H](C)[C@@H]([C@@H](CC(=O)N1CCC[C@H]1[C@H](OC)[C@@H](C)C(=O)N[C@H](C)[C@@H](O)c1ccccc1)OC)N(C)C(=O)[C@@H](NC(=O)[C@@H](NC)C(C)C)C(C)C [MMAE, monomethyl auristatin E] (H-[NMeV]V[Dil][Dolaproine]-X1)
MDA-MB-468 cells
  ATP secretion: robust ATP secretion that was comparable to thapsigargin
[1]
  ER stress response (ATF4 expression, phosphorylation of JNK): further increased the ER stress response
PC-3 cells
  ER stress (phosphorylation of IRE1 and JNK): elicits ER stress (phosphorylation of IRE1 and JNK); also recorded: elicits ER stress (phosphorylation of IRE1 and INK)
[2]; FIG. 3D
  Release of ATP: release of ATP
[2]; supernatant after 16 hours
  ATP secretion: robust ATP secretion
BxPC-3 cells
  ATP secretion: equivalent levels of ATP secretion
T-24 (bladder) cells
  ATP secretion: potent ATP secretion
[3]
  Cytokine and chemokine production: increase of the indicated cytokines and chemokines that was more robust than treatment with Paclitaxel
[4]
  Macrophage antigen presentation (frequency of MHCII-expressing macrophages): increase in macrophage antigen presentation
[5]
  Cytokine and chemokine production: increase of the indicated cytokines and chemokines that was more robust than treatment with Paclitaxel
[6]
  ATP secretion (cell lines responding): potent ATP secretion from 3 of 3 cell lines evaluated
[7]
  Cytokine and chemokine production: increase of the indicated cytokines and chemokines that was more robust than treatment with Paclitaxel
MCF7 cells [8]
  Secretion of HMGB1: increased secretion
MCF7 cells [9]
  Secretion of ATP: increased secretion
